Data published in paper PMC4147353 (Nature Communications, 2014).

Tests used:
panel of 32 DUBs = type: biochemical, human
USP7 = USP7 (Homo sapiens, UniProt Q93009); assay: MALDI-TOF DUB assay, inhibitor IC50 on USP7; type: biochemical; settings: for potency for USP7 relative to the second most sensitive DUB on the panel (USP21): from IC50 values
[1] = type: physicochemical; settings: 1 mM DTT or 0.5 mM TCEP, 30 °C for 1 h, DUB assay conditions; data not shown

Sequence of USP7 (Q93009 whole entry): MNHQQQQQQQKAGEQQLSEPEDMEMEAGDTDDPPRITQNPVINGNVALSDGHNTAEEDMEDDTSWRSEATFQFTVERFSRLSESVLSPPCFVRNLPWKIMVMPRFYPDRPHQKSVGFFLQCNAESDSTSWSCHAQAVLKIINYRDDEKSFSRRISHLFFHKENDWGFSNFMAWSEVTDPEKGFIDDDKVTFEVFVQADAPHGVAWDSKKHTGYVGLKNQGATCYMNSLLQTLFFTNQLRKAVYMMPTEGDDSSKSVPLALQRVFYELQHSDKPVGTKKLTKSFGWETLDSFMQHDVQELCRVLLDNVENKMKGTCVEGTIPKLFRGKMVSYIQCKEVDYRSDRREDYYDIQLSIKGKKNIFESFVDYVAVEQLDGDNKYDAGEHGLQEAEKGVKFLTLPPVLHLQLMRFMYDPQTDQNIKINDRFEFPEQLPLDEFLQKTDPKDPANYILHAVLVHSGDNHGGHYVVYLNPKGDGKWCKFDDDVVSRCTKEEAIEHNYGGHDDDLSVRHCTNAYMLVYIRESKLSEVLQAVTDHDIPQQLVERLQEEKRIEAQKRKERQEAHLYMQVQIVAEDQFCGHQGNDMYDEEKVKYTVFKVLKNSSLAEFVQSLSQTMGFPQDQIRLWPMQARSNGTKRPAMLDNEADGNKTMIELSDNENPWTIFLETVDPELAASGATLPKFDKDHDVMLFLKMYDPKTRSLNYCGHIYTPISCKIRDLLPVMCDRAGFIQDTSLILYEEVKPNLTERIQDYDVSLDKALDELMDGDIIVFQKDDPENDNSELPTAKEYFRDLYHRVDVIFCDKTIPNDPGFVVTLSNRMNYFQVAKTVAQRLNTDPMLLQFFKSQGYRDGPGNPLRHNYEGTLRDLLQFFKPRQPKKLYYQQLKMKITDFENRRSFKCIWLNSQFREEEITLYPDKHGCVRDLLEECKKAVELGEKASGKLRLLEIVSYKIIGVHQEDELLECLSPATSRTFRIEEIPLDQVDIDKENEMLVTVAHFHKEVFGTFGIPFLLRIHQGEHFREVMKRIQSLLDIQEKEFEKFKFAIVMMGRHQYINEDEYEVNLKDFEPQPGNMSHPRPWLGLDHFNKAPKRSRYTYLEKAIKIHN

N#Cc1nc2c(nc1C#N)-c1ccc(Cl)cc1C2=O [HBX 41,108]
number of DUBs inhibited more than 70% (panel of 32 DUBs; of the 32 DUBs tested, at 5 μM): 25

Cc1ccc(S(=O)(=O)c2ccc([N+](=O)[O-])o2)cc1 [NSC 697923]
potency for USP7 relative to the second most sensitive DUB on the panel (USP21) (USP7): five- to eightfold higher potency | potency for USP7 relative to HBX 41,108 (USP7; ratio of IC50 values, 0.08 μM versus 5.97 μM): 70 fold

CCC[C@H](NC(=O)/C(C#N)=C/c1cccc(Br)n1)c1ccccc1 [WP1130]
reaction with reducing agents DTT and TCEP [1]: significantly reacted with both DTT and TCEP

Cc1ccc(S(=O)(=O)/C=C/C#N)cc1 [BAY 11-7082]
potency for USP7 relative to the second most sensitive DUB on the panel (USP21) (USP7): five- to eightfold higher potency

N#CSc1cc(SC#N)c(N)nc1N [PR-619]
number of DUBs inhibited (panel of 32 DUBs; of the 32 tested DUBs): 27
